Patent US20230391729A1, “SUCCINATE SALTS OF N-(3-(4-(3-(DIISOBUTYLAMINO)PROPYL)PIPERAZIN-1-YL)PROPYL)-1H-BENZO[D]IMIDAZOL-2-AMINE, PREPARATION THEREOF AND USE OF THE SAME” (ALZPROTECT, priority 2020, published 2023)

System: dopaminergic (TH positive) neurons
Experiment: Survival and neurite network of TH(+) mesencephalic neurons after rotenone injury
Format: cell-based, rat
Details: rotenone 10 nM 24 h
Protocol: Rat dopaminergic neurons were cultured as described by Visanji et al. in FASEB J. 2008, 22(7): 2488-2497 and Callizot et al., in Plos One 2019: https://doi.org/10.1371/journal.pone.0215277. Briefly, pregnant female rat (Wistar) of 15 days of gestation were killed using a deep anesthesia with CO2 chamber and a cervical dislocation. The midbrains obtained from 15-day-old rat embryos (Janvier, France) were dissected under a microscope. The embryonic midbrains were removed and placed in ice-cold medium of Leibovitz (L15) containing 2% of Penicillin-Streptomycin (PS) and 1% of BSA. The ventral portion of the mesencephalic flexure, a region of the developing brain rich in dopaminergic neurons, were used for the cell preparations. The midbrains were dissociated by trypsinization for 20 min at 37° C. (solution at a final concentration of 0.05% trypsin and 0.02% EDTA). The reaction was stopped by the addition of DMEM containing DNAase I grade II (0.5 mg/mL) and 10% of FCS. Cells were then mechanically dissociated by 3 passages through a 10 ml pipette. Cells were then centrifuged at 180×g for 10 min at +4° C. on a layer of BSA (3.5%) in L15 medium. The supernatant was discarded and the cell pellets were re-suspended in a defined culture medium consisting of Neurobasal supplemented with B27 (2%), L-glutamine (2 mM) and 2% of PS solution and 10 ng/mL of BDNF and 1 ng/mL of Glial-Derived Neurotrophic Factor (GDNF). Viable cells were counted in a Neubauer cytometer using the trypan blue exclusion test. The cells were seeded at a density of 40,000 cells/well in 96 well-plates (pre-coated with poly-L-lysine) and maintained in a humidified incubator at 37° C. in 5% CO2/95% air atmosphere. Half of the medium was changed every 2 days with fresh medium. […]
The following read-outs were investigated: • neuron survival: total number of TH neurons (TH staining), • neurite network: total length of neurite network of TH positive neurons (in μm) • α-syn aggregation (area of overlapping between TH and α-syn staining in μm^2) […]

Substance: N-(3-(4-(3-(diisobutylamino)propyl)piperazin-1-yl)propyl)-1H-benzo[d]imidazol-2-amine sesqui-succinate salt [sesqui-succinate salt Form 1]
- neuron survival: total number of TH neurons (administered directly with rotenone, all concentrations): significantly increased neuronal survival
- neurite network of TH positive neurons (pre and co-treatment, 10 to 100 nM): significantly improved
- neuron survival: total number of TH neurons (pre-incubated, 10 and 50 nM): significantly neuroprotective
